We go through 4 molecules from article PMC5849685, “Molecular basis of an agarose metabolic pathway acquired by a human intestinal symbiont” (Nature Communications, 2018).

Holding throughout (type): biochemical
The target in one assay is T1, GH2C (Bacteroides uniformis, UniProt A0A2D0TCC9).
T1 construct: nucleotides 76-2547 of the gene (signal peptide removed; about residues 26-848), N-terminal His6 tag with thrombin site, pET28a, E. coli BL21 Star (DE3)
T1 sequence (A0A2D0TCC9 4-826): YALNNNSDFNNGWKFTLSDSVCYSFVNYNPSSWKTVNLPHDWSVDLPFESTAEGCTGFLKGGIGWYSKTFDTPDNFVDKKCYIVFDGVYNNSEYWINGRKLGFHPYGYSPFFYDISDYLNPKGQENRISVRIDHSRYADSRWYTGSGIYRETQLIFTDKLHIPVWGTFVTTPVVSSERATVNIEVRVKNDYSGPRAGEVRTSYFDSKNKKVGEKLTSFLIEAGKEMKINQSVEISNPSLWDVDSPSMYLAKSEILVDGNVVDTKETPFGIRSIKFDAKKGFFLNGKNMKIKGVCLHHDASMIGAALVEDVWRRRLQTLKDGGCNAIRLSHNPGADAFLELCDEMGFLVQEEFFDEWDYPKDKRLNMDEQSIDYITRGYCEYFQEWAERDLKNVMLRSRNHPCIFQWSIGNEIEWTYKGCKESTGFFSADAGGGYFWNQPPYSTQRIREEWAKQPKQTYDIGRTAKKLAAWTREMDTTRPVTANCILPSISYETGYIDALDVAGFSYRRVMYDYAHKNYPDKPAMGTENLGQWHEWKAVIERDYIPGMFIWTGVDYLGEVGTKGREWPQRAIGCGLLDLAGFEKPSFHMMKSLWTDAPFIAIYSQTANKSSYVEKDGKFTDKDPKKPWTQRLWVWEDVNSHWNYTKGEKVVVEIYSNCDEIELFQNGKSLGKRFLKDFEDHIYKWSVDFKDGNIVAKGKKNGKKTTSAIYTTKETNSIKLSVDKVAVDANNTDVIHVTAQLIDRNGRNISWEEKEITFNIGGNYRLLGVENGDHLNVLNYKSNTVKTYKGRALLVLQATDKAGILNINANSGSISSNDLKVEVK
Put plainly: TLC product analysis. Conditions: 2 uM enzyme, 2.5 mM A3, 20 mM Tris pH 8.0, 0.5 M NaCl, 37 C, 2 h.

Another assay concerns the target T2, GH117B (Bacteroides uniformis, UniProt A0A2D0TCD6).
T2 construct: nucleotides 76-1209 of the gene (signal peptide removed; about residues 26-402), N-terminal His6 tag with thrombin site, pET28a, E. coli BL21 Star (DE3); homodimer
T2 sequence (A0A2D0TCD6 4-380): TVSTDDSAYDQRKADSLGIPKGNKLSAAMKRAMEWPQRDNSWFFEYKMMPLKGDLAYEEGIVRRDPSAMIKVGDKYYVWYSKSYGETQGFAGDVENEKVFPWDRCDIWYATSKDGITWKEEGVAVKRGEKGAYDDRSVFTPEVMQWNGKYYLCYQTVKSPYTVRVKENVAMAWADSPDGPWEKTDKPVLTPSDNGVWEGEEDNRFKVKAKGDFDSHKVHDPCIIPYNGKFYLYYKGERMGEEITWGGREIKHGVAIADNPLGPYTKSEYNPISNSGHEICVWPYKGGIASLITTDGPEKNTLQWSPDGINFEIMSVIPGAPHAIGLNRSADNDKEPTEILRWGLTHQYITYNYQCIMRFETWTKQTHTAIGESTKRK
The experiment in a line: TLC product analysis. Conditions: 0.5 uM enzyme, 0.5 mg/ml N2, 20 mM Tris pH 8.0, 0.5 M NaCl, 37 C, 24 h.

Another assay concerns the target T3, GH16B (Bacteroides uniformis, UniProt A0A2D0TCD1).
T3 construct: nucleotides 67-1029 of the gene (signal peptide removed; about residues 23-342), N-terminal His6 tag with thrombin site, pET28a, E. coli BL21 Star (DE3)
T3 sequence (A0A2D0TCD1 4-323): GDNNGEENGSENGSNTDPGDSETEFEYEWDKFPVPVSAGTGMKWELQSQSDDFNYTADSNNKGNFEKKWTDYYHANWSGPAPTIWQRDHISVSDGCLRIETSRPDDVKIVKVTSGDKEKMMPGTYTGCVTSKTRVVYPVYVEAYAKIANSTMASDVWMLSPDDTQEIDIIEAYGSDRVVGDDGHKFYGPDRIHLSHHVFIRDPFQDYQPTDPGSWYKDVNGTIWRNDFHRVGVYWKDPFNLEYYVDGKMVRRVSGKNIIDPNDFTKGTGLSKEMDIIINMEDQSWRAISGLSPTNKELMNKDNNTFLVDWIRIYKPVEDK
The experiment in a line: FACE product analysis. The note with it: 20 mM Tris pH 8.0, 0.5 M NaCl, 37 C, overnight.

A further assay concerns the target T4, GH86 (Bacteroides uniformis, UniProt A0A2D0TCD3).
T4 construct: nucleotides 61-1941 of the gene (signal peptide removed; about residues 21-646), N-terminal His6 tag with thrombin site, pET28a, E. coli BL21 Star (DE3)
T4 sequence (A0A2D0TCD3 4-629): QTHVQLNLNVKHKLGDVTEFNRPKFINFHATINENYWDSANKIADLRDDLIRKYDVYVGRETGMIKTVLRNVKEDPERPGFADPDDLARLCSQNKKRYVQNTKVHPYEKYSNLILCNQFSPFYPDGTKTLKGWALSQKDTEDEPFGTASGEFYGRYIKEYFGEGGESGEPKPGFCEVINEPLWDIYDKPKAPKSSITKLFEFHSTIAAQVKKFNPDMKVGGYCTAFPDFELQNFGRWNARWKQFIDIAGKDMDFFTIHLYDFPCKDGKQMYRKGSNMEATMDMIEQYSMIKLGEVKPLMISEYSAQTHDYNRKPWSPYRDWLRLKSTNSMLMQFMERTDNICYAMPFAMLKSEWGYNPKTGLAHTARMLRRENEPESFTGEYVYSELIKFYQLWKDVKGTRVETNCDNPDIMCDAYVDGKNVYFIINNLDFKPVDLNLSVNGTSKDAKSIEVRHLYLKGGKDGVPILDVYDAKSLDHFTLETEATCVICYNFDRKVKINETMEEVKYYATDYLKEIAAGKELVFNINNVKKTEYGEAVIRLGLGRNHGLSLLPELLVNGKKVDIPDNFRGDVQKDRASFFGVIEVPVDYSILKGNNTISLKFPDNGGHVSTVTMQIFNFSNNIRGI
Put plainly: FACE product analysis. The note with it: 20 mM Tris pH 8.0, 0.5 M NaCl, 37 C, overnight.

With `OC[C@H]1O[C@@H](O[C@H]2[C@H]3OC[C@@H]2O[C@@H](O[C@H]2[C@@H](O)[C@@H](CO)OC(O)[C@@H]2O)[C@H]3O)[C@H](O)[C@@H](O)[C@H]1O` (stereo partly drawn) [A3, agarotriose], on GH2C, the TLC product analysis result was “GH2C was able to hydrolyze A3”.

With `OC[C@H]1OC(O)[C@H](O)[C@@H](O[C@@H]2O[C@H]3CO[C@@H]([C@@H]2O)[C@@H]3O)[C@H]1O` (stereo partly drawn) [N2, neoagarobiose], at GH117B, the TLC product analysis result is “GAL and AHG released from N2 by GH117B”.

Consider `OC[C@H]1O[C@@H](O[C@H]2[C@H]3OC[C@@H]2O[C@@H](O[C@H]2[C@@H](O)[C@@H](CO)O[C@@H](O[C@H]4[C@H]5OC[C@@H]4O[C@@H](O[C@H]4[C@@H](O)[C@@H](CO)O[C@@H](O[C@H]6[C@H]7OC[C@@H]6O[C@@H](O[C@H]6[C@@H](O)[C@@H](CO)OC(O)[C@@H]6O)[C@H]7O)[C@@H]4O)[C@H]5O)[C@@H]2O)[C@H]3O)[C@H](O)[C@@H](O[C@@H]2O[C@H]3CO[C@@H]([C@@H]2O)[C@@H]3O)[C@H]1O` (stereo partly drawn) [N8, neoagarooctaose], for which the FACE product analysis result on GH16B was “GH16B predominantly generated N4 from N8, N2 and N4 from N6”; on GH86, “GH86 was able to digest neoagarooctaose (N8) and neoagarohexaose (N6) to N2”.

As for `OC[C@H]1O[C@@H](O[C@H]2[C@H]3OC[C@@H]2O[C@@H](O[C@H]2[C@@H](O)[C@@H](CO)O[C@@H](O[C@H]4[C@H]5OC[C@@H]4O[C@@H](O[C@H]4[C@@H](O)[C@@H](CO)OC(O)[C@@H]4O)[C@H]5O)[C@@H]2O)[C@H]3O)[C@H](O)[C@@H](O[C@@H]2O[C@H]3CO[C@@H]([C@@H]2O)[C@@H]3O)[C@H]1O` (stereo partly drawn) [N6, neoagarohexaose], the FACE product analysis entry was “GH16B predominantly generated N4 from N8, N2 and N4 from N6” on GH16B (weak activity); “GH86 was able to digest neoagarooctaose (N8) and neoagarohexaose (N6) to N2” on GH86.
